Test results published in ChEMBL document CHEMBL5505979, “Novel aminothiazoximone-corbelled ethoxycarbonylpyrimidones with antibiofilm activity to conquer Gram-negative bacteria through potential multitargeting effects” (Eur J Med Chem, 2024).
≈ marks a conversion by molar mass, not a printed value. Calls of active or inactive are those of the source. The rule behind the calls is not given here.

Key:
Klebsiella pneumoniae = assay: Anti-bacterial activity against Klebsiella pneumoniae KPN325 assessed as inhibition of bacterial growth; format: functional; conditions: Klebsiella pneumoniae, KPN325; read-out: MIC
Staphylococcus aureus [1] = assay: Anti-bacterial activity against Staphylococcus aureus ATCC 29213 assessed as inhibition of bacterial growth; format: functional; conditions: Staphylococcus aureus, ATCC 29213; read-out: MIC
Staphylococcus aureus [2] = assay: Anti-bacterial activity against Staphylococcus aureus ATCC 12600 assessed as inhibition of bacterial growth; format: functional; conditions: Staphylococcus aureus, ATCC 12600; read-out: MIC
Staphylococcus aureus [3] = assay: Anti-bacterial activity against Staphylococcus aureus ATCC 6538 assessed as inhibition of bacterial growth; format: functional
Staphylococcus aureus [4] = assay: Anti-bacterial activity against Staphylococcus aureus CMCC (B) 26003 assessed as inhibition of bacterial growth; format: functional
Pseudomonas aeruginosa = assay: Anti-bacterial activity against Pseudomonas aeruginosa CMCC (B) 10104 assessed as inhibition of bacterial growth; format: functional; conditions: Pseudomonas aeruginosa, CMCC (B) 10104; read-out: MIC
Acinetobacter baumannii [5] = assay: Bactericidal activity against Acinetobacter baumannii assessed as bacterial killing at 1 to 8 times of MIC concentration measured upto 8 hrs by time-kill kinetics assay; format: functional, organism-based
Acinetobacter baumannii [6] = assay: Anti-bacterial activity against Acinetobacter baumannii assessed as inhibition of bacterial growth measured upto 9 hrs; format: functional, organism-based
[7] = Cytotoxicity against human L02 cells assessed as cell viability at effective concentration measured after 24 hrs; format: toxicity, cell-based; conditions: read-out: Activity
Escherichia coli [8] = assay: Reduction of biofilm virulent factors in Escherichia coli ATCC 25922 assessed as decrease in extracellular polymeric substances (EPS) by measuring optical density at 490 nm at 2 times of MIC concentration by congo red binding assay (reference value: 0.028 to 0.031); format: functional
Acinetobacter baumannii [9] = assay: Anti-bacterial activity against Acinetobacter baumannii assessed as inhibition of bacterial growth measured after 20 passages at sub-MIC concentration by multiple resistance study; format: functional, organism-based
Acinetobacter baumannii [10] = assay: Anti-bacterial activity against Acinetobacter baumannii assessed as fractional inhibitory concentration measured upto 9 hrs in presence of norfloxacin; format: functional
Acinetobacter baumannii [11] = assay: Anti-bacterial activity against Acinetobacter baumannii assessed as growth inhibition by measuring optical density measured at 2 time of MIC in presence of 1/8 times of MIC of norfloxacin by Checkerboard assay (reference value: 0.155); format: functional
Acinetobacter baumannii [12] = assay: Anti-bacterial activity against Acinetobacter baumannii assessed as growth inhibition by measuring optical density measured at 1 time of MIC in presence of 1/4 times of MIC of norfloxacin by Checkerboard assay (reference value: 0.157); format: functional
Acinetobacter baumannii [13] = assay: Anti-bacterial activity against Acinetobacter baumannii assessed as growth inhibition by measuring optical density measured at 1 time of MIC in presence of 1 times of MIC of norfloxacin by Checkerboard assay (reference value: 0.157); format: functional
Acinetobacter baumannii [14] = assay: Anti-bacterial activity against Acinetobacter baumannii assessed as growth inhibition by measuring optical density measured at 1 time of MIC in presence of 2 times of MIC of norfloxacin by Checkerboard assay (reference value: 0.157); format: functional
Acinetobacter baumannii [15] = assay: Anti-bacterial activity against Acinetobacter baumannii assessed as growth inhibition by measuring optical density measured at 1/2 time of MIC in presence of 1 times of MIC of norfloxacin by Checkerboard assay (reference value: 0.152); format: functional
Acinetobacter baumannii [16] = assay: Anti-bacterial activity against Acinetobacter baumannii assessed as growth inhibition by measuring optical density measured at 1/4 time of MIC in presence of 1/2 times of MIC of norfloxacin by Checkerboard assay (reference value: 0.152); format: functional
Escherichia coli [17] = assay: Anti-bacterial activity against Escherichia coli ATCC 25922 assessed as growth inhibition by measuring optical density measured at 4 time of MIC in presence of 1/4 times of MIC of norfloxacin by Checkerboard assay (reference value: 0.125); format: functional
Escherichia coli [18] = assay: Anti-bacterial activity against Escherichia coli ATCC 25922 assessed as growth inhibition by measuring optical density measured at 4 time of MIC in presence of 2 times of MIC of norfloxacin by Checkerboard assay (reference value: 0.125); format: functional
Escherichia coli [19] = assay: Anti-bacterial activity against Escherichia coli ATCC 25922 assessed as growth inhibition by measuring optical density measured at 2 time of MIC in presence of 1/4 times of MIC of norfloxacin by Checkerboard assay (reference value: 0.128); format: functional
Escherichia coli [20] = assay: Anti-bacterial activity against Escherichia coli ATCC 25922 assessed as growth inhibition by measuring optical density measured at 2 time of MIC in presence of 1/2 times of MIC of norfloxacin by Checkerboard assay (reference value: 0.128); format: functional
Escherichia coli [21] = assay: Anti-bacterial activity against Escherichia coli ATCC 25922 assessed as growth inhibition by measuring optical density measured at 1 time of MIC in presence of 1/4 times of MIC of norfloxacin by Checkerboard assay (reference value: 0.125); format: functional
Escherichia coli [22] = assay: Anti-bacterial activity against Escherichia coli ATCC 25922 assessed as growth inhibition by measuring optical density measured at 1/2 time of MIC in presence of 1/4 times of MIC of norfloxacin by Checkerboard assay (reference value: 0.124); format: functional
Escherichia coli [23] = assay: Anti-bacterial activity against Escherichia coli ATCC 25922 assessed as growth inhibition by measuring optical density measured at 1/4 time of MIC in presence of 2 times of MIC of norfloxacin by Checkerboard assay (reference value: 0.128); format: functional
Acinetobacter baumannii [24] = assay: Induction of membrane depolarization Acinetobacter baumannii assessed as increase in red fluorescence intensity at 0.5 to 8 times of MIC concentration measured after 6 hrs by […] assay; format: functional, organism-based
Cell membrane [25] = assay: Induction of physical destruction of cell membrane in Escherichia coli ATCC 25922 assessed as leakage of nucleic acid by measuring absorbance of 260 nm at 1/4 to 8 times of MIC concentration; format: cell membranes
Cell membrane [26] = assay: Induction of physical destruction of cell membrane in Escherichia coli ATCC 25922 assessed as leakage of protein at 1/4 to 8 times of MIC concentration by Coomassie blue quantitative assay; format: cell membranes
Acinetobacter baumannii [27] = assay: Reduction in metabolic activity of Acinetobacter baumannii assessed as decrease in fluorescence intensity at 1/4 to 8 times of MIC measured after 6 hrs by resazurin sodium salt assay; format: functional, organism-based
Escherichia coli [28] = assay: Reduction in metabolic activity of Escherichia coli ATCC 25922 assessed as biomass of the fluorescent pink change to non-fluorescent blue; format: functional, organism-based
Escherichia coli [29] = assay: Reduction in metabolic activity of Escherichia coli ATCC 25922 at MIC concentration relative to control; format: functional; parameters: scale not given: the % may be the effect or the level left
Escherichia coli [30] = assay: Induction of intracellular ROS accumulation in Escherichia coli ATCC 25922 assessed as fluorescence intensity at 1/4 to 2 times of MIC by DCFH-DA staining based assay; format: functional, organism-based
Escherichia coli [31] = assay: Induction of intracellular ROS accumulation in Escherichia coli ATCC 25922 assessed as larger green fluorescence densities at 1/4 to 2 times of MIC by microscopic imaging assay; format: functional, organism-based
Escherichia coli [32] = assay: Induction of ROS accumulation in Escherichia coli ATCC 25922 assessed as decrease in GSH activity by measuring reduced GSH to convert to oxidized GSSG at 1/4 to 2 times of MIC by Ellmans metho; format: functional, organism-based

**Q.** Which MIC (Klebsiella pneumoniae) does the source give for `CCCCc1nc(Cl)c(C2NC(=O)NC(CN3CCN(C(=O)/C(=N/OC)c4csc(N)n4)CC3)=C2C(=O)OCC)[nH]1` (centres undefined) here?
**A.** Its MIC is 53 µM (≈ 32.2 µg/mL).

**Q.** What about the MIC (Staphylococcus aureus [1]) of the same compound?
**A.** Its MIC is 26 µM (≈ 15.8 µg/mL).

**Q.** And the MIC (Staphylococcus aureus [2])?
**A.** Its MIC is 7 µM (≈ 4.26 µg/mL).

**Q.** And the MIC (Staphylococcus aureus [3])?
**A.** The MIC was 7 µM (≈ 4.26 µg/mL).

**Q.** What about the MIC (Staphylococcus aureus [4]) of the same compound?
**A.** The MIC was 26 µM (≈ 15.8 µg/mL).

**Q.** And the MIC (Pseudomonas aeruginosa)?
**A.** The MIC was 26 µM (≈ 15.8 µg/mL).

**Q.** What about the Activity (Acinetobacter baumannii [5]) of the same compound?
**A.** Its Activity is “Active”.

**Q.** And the Activity (Acinetobacter baumannii [6])?
**A.** Its Activity is “Dose-Dependent Effect”.

**Q.** And the viability at 24 h [7]?
**A.** The viability at 24 h was over 95%.

**Q.** And the OD (Escherichia coli [8])?
**A.** Its OD is 0.068.

**Q.** What about the Activity (Acinetobacter baumannii [9]) of the same compound?
**A.** Its Activity is “Active”.

**Q.** What about the FIC (Acinetobacter baumannii [10]) of the same compound?
**A.** Its FIC is 0.5.

**Q.** And the OD (Acinetobacter baumannii [11])?
**A.** Its OD is 0.128.

**Q.** And the OD (Acinetobacter baumannii [12])?
**A.** The OD was 0.109.

**Q.** And the OD (Acinetobacter baumannii [13])?
**A.** The OD was 0.052.

**Q.** What about the OD (Acinetobacter baumannii [14]) of the same compound?
**A.** The OD was 0.053.

**Q.** And the OD (Acinetobacter baumannii [15])?
**A.** The OD was 0.109.

**Q.** What about the OD (Acinetobacter baumannii [16]) of the same compound?
**A.** Its OD is 0.125.

**Q.** And the OD (Escherichia coli [17])?
**A.** The OD was 0.051.

**Q.** And the OD (Escherichia coli [18])?
**A.** The OD was 0.051.

**Q.** And the OD (Escherichia coli [19])?
**A.** Its OD is 0.102.

**Q.** And the OD (Escherichia coli [20])?
**A.** Its OD is 0.057.

**Q.** And the OD (Escherichia coli [21])?
**A.** The OD was 0.111.

**Q.** And the OD (Escherichia coli [22])?
**A.** The OD was 0.118.

**Q.** What about the OD (Escherichia coli [23]) of the same compound?
**A.** Its OD is 0.078.

**Q.** And the Activity (Acinetobacter baumannii [24])?
**A.** The Activity was “Active”.

**Q.** And the Activity (Cell membrane [25])?
**A.** The Activity was “Active”.

**Q.** What about the Activity (Cell membrane [26]) of the same compound?
**A.** Its Activity is “Active”.

**Q.** And the Activity (Acinetobacter baumannii [27])?
**A.** The Activity was “Active”.

**Q.** What about the Activity (Escherichia coli [28]) of the same compound?
**A.** Its Activity is “Active”.

**Q.** And the Activity (Escherichia coli [29])?
**A.** The Activity was 63.6%.

**Q.** And the Activity (Escherichia coli [30])?
**A.** Its Activity is “Active”.

**Q.** What about the Activity (Escherichia coli [31]) of the same compound?
**A.** The Activity was “Active”.

**Q.** And the Activity (Escherichia coli [32])?
**A.** The Activity was “Active”.
